Reference: patent US20190225643A1, “NOVEL NUCLEOSIDE ANALOGS AND USE THEREOF IN THERAPEUTIC TREATMENT” (CORNELL UNIVERSITY, priority 2016, published 2019)

Columns and labels:
PEL cells (BC1, BC3) = assay: Immunoblotting of PARP cleavage, LC3B cleavage and γH2AX in PEL cells; assay type: cell-based, human
Description: For all intracellular signaling studies, cell lines were plated at 2*10^5 cells/mL or at indicated densities in RPMI-1640 with 20% FBS, and treated with the stated concentrations of 6-ETI, from 6 to 48 hours. Immunoblotting was performed using the following antibodies: PARP (BD Pharmingen, 556494), LC3B (Cell Signaling, 2775S), phospho-l-listone H2AX.X S139 (Cell Signaling, 2577S), GAPDH (Gene Tex, GTX100118), ADK (Santa Cruz, sc-365470) vFLIP 6/14 antibody was a gift from Mary Collins at University College of London, vCyclin (Abcam, ab12208), LANA (Advanced Biotechnologies, 13-210-100), β-Actin (Sigma A5316), p65 (Cell Signaling C22B4, p50 (Cell Signaling 3035), October-1 (Cell Signaling 4428), p-IκBα (Santa Cruz 3-9 sc-8404), IκBα (Santa Cruz C-21 sc-371), pIKKα/β (ser 176)(Santa Cruz sc-21661), IKKα (Santa Cruz H-744 sc-7218).

IBL1 cells = assay: Trypan-blue exclusion viability, non-PEL cell line; assay type: cell-based; settings: Homo sapiens; selected non-PEL cell line (IBL1), 48 hours; read-out: LC50 by Trypan-blue exclusion
Description: (§1) Cell viability assays were performed by plating log-phase cells in RPMI complete media with 20% FBS at 1*10^5 cells/mL, with concentrations of 6-ETI or phospho-6-ETI ranging from 0.1 nM to 100 μM. ATP content at 24, 48 and 72 hours post-treatment was measured by the CellTiter-Glo kit (Promega, Madison, Wis.), or by Trypan blue assay as indicated. The LC50 for 6-ETI in each cell line was determined using online EC50 software at changbioscience.com or using GraphPad Prism to determine the LC50 for 6-ETI, phospho-6-ETI and nucleoside analogs in MM cell lines and primary MM patient samples.

U266 (MM) = assay: cells; assay type: cell-based; settings: Homo sapiens, U-266, 48 h, read-out: LC50 U266 (MM) in nM
Description: as §1

BC3 (PEL) = assay: cells; assay type: cell-based; settings: Homo sapiens; 48 hours, CellTiter-Glo; read-out: LC50 BC3 (PEL)
Description: as §1

IBL-1 (EBV+ DLBCL) = assay: cells; assay type: cell-based; settings: Homo sapiens, 48 h, read-out: LC50 IBL-1 (DLBCL)
Description: as §1

[1] = tested on: BC3NFRen-luc #3 PEL xenograft; assay: PEL xenograft model (BC3NFRen-luc #3 in NOD-SCID mice); assay type: in vivo
Description: The BC3 in vivo xenograft model was set up as previously described (6). Essentially, ˜4-6 week old male NOD-SCID mice (Jackson Labs Stock# 001303) were injected intraperitoneally (I.P.) with 1*10^7 BC3NFRen-luc #3 cells and followed by in vivo imaging every three days. After imaging on day 5 to confirm establishment of the tumor, the mice were randomized to vehicle, low dose and high dose cohorts, with average tumor burden distributed evenly across the groups. Each dose cohort contained 10 mice. Mice were treated for nine days beginning at randomization with vehicle (PBS-Tween80), low dose 6-ETI (150 mg/kg/day), or high dose 6-ETI (300 mg/kg/day). Mice were treated with 200 mg/kg of the 6-ETI analogs (phospho-6ETI and 6-ETI cAMP) for 9 days. We monitored mice for tumor growth by live imaging and weighing, with sacrifice point determined to be a net gain or loss of 10% body weight over a week. Upon reappearance of refractory tumors, mice were re-treated for a further 9-day interval, and followed for a total of 100 days. Compound effects were assessed on overall survival, progression-free survival and tumor burden by Kaplan-Meier curves generated using GraphPad Prism software, and determined p values by 2-tailed analysis with log-rank tests.

ADK = ADK (Homo sapiens, UniProt P55263); assay: In vitro ADK kinase assay with HPLC/MS; assay type: biochemical; settings: 37° C., 5-360 minutes
Description: The ADK kinase assay kit was purchased from Novocib, France. ADK and ATP provided in the kit were premixed into provided kinase assay buffer. The reaction at 37° C. was started by addition of 6-ETI in DMSO at T=0, followed by quenching of 10 μL of the reaction by 30 μL acetonitrile in an eppendorf tube at 5, 10, 15, 30, 60, 120, 150, 180, and 360 minutes. The quenched reaction was briefly vortexed and centrifuged at ˜7000 g, following which the supernatant was transferred into a fresh tube and stored at 4° C. for HPLC/MS analysis. A control reaction was set up containing ADK, ATP, and Inosine, in order to generate a standard peak for IMP, while ADK, DTT, and ATP controls were generated by dissolving individual kit components in a 3:1 acetonitrile:dH2O solution.
LCMS separations were performed using a Waters ACQUITY UPLC system equipped with ACQUITY PDA (diode array), Waters Micromass SQD 2000 spectrometer, and a Waters ACQUITY BEH C18 column (1.7 μm, 2.1×100 mm). The solvent system consisted of 0.1% Formic Acid in Water (Solvent A) and 0.1% Formic Acid in Acetonitrile (Solvent B). Flow was set to 0.3 mL/min, and a gradient of 5-95% Solvent B was applied over a period of 3 minutes. Total runtime was 4 minutes. Eluents were detected using a PDA at a wavelength of 254 nm. Mass data was obtained in both positive and negative electrospray mode, at a cone voltage of 30V.

[2] = tested on: p65/p50 binding to the NF-κB response element in BC3 PEL cell line; assay: EMSA of NF-κB binding in BC3 cells; assay type: cell-based, human
Description: BC3 or LCL9001 cells were plated at 5*10^5 cells/ml, and treated with the hit compounds at 25 μM or with NSC39368 at 5, 10, 25 and 50 μM for 24 hours. Nuclear extracts were obtained as previously described (Keller S. A. et al., Blood. 2000 96(7):2537-42), and electrophoretic mobility shift assays (EMSAs) were performed using an NF-κB-specific oligonucleotide probe.

[3] = tested on: PA-Tu-8988T pancreatic adenocarcinoma cell line; assay type: cell-based, human
Description: as §1
Pancreatic adenocarcinoma PA-Tu-8988T cell line was kindly provided by Lewis Cantley's lab (Weill Cornell Medicine). […] of ADK in this cell line was achieved by transducing these cells with ADK shRNA Lentiviral Particles (Santa crux) and selecting the stable cell line using 2 μg/ml Puromycin.

ADK, sequence (P55263 whole entry): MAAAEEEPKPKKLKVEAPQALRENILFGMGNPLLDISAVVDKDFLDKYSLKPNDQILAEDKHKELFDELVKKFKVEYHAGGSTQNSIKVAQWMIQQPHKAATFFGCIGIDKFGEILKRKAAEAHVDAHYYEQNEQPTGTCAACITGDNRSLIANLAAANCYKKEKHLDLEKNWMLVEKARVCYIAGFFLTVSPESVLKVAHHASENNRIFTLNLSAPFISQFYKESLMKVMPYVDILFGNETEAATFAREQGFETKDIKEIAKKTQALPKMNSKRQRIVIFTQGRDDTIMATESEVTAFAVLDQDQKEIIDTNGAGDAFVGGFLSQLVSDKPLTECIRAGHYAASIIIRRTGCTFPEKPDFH

CCSc1ncnc2c1ncn2[C@@H]1O[C@H](CO)C(O)[C@@H]1O (stereo partly drawn) [Compound 6-ETI, 6-ethylthioinosine]
DNA damage marker γH2AX (PEL cells (BC1, BC3); 1 μM and 10 μM, 24 hours): appearance of γH2AX
autophagy (LC3B cleavage product) (PEL cells (BC1, BC3); 1 μM, 24 hr): some induction of autophagy
apoptosis (PARP cleavage) (PEL cells (BC1, BC3); BC1 and BC3, 1 μM, 24 hrs): small but observable increases in apoptosis
CC50 (IBL1 cells): 134000 nM
CC50 (U266 (MM)): 437 nM
CC50 (BC3 (PEL)): 49.8 nM
CC50 (IBL-1 (EBV+ DLBCL)): > 100000 nM
toxicities from treatment ([1]; 150 or 300 mg/kg/day): no obvious toxicities
tumor response by in vivo luciferase imaging ([1]; 150 or 300 mg/kg/day for 9 days, within three days of treatment): striking and immediate regression of the implanted xenograft
progression-free survival ([1]; 150 or 300 mg/kg/day, p<0.0001, 100 days): startling protective effect
overall survival ([1]; low dose and high dose versus untreated): significant prolonged overall survival
phosphorylation by ADK (ADK): ADK phosphorylates 6-ETI directly
inhibition of active heterodimer p65/p50 binding to the NF-κB response element ([2]; BC3, 24 hours): effectively inhibited
doses effective in inhibiting NF-κB in PELs ([2]; PEL cells): 10 to 50 µM
change in LC50 on ADK knockdown [3]: a log increase in LC50
